Experimental data as given in patent US10138232B2, “Naphthyridinedione derivatives” (NOVARTIS AG, priority 2014, dated 2018).

Test system: CFTR-Y122X (GFP-CFTR-Y122X-Renilla construct) in Hek293 cell lines
Assay: CFTR-Y122X assay (dual reporter readthrough, Renilla luminescence)
Format: cell-based
Settings: Homo sapiens, compounds incubated 24 h, tested up to 100 μM; for AC50: nonsense mutation suppression in the CFTR-Y122X assay; for Emax: nonsense mutation suppression, 100% activity = 14 mM paromomycin, read-out: Amax
Source text: In particular, compounds of formula (I), (I′), (Ia), (Ia′) or (Ib) I act as nonsense mutation suppressors on frequent PTCs, e.g. on Y122X in the mRNA of the cystic fibrosis conductance regulator protein (CFTR). This can be determined in vitro, for example, using cell lines expressing GFP-CFTR-Y122X-Renilla constructs as described herein.
Activity of compounds of the present invention was examined in recombinant, dual reporter isogenic Hek293 cell lines (“CFTR-Y122X assay”). The engineered reporter constructs contained the 18 bp sequence strech corresponding to a common Y122X PTC mutation in CFTR class I mutant patients (see Sermet-Gaudelus, BMC Medicine, 2007, 5(5)). Instead of a tyrosine (Y) in position 122 of the CFTR protein a TGA stop codon interrupts the open reading frame (Y122X) of the corresponding mRNA. This TGA stop codon triplet (followed by the pyrimidine base cytosine) is permissive to aminoglycoside mediated translational readthrough which served as positive control for high throughput screening. A corresponding TAA stop codon variant and a wildtype non mutated construct was used for confirmation and counter screening. The CFTR sequence was sandwiched between an eGFP reporter, and a triple myc tag sequence fused to a full length Renilla reporter. All sequences, including an intron containing one positioned pre-eGFP (b-globin intron) were cloned in frame. The corresponding expression constructs were stably expressed in the isogenic HEK-R4 cell host (Invitrogen Incorp.) and selected by blasticidin resistance. The isogenic integration of the construct minimizes gene dose effects and improves assay reproducibility. Stably integrated single cell derived clones were selected and characterized for aminoglycoside mediated readthrough. […] Readthrough of Y122X accumulates an intracellular localized fusion protein approximately 65.5 kDa in size as controlled by western blot analysis and immunofluorescence using an anti-renilla antibody. The eGFP reporter pre-PTC mutation serves as visual control for genetic stability of the screening clones and minimizes protein degradation of small fusion protein amounts. In the assay, compound concentration was 10 μM. In miniaturized 1536 well format 2000 cells were dispensed in 4 μl/well and incubated for 24 h at 37° C., 5% CO2. 40 nl compounds were placed on the cells with control wells containing 1 ul Paramomycin and 14.4 mM final concentration. Compounds were incubated for 24 h. Renilla Glo substrate (2.5 ul) was added and plates were centrifuged and processed for luminescence measurement using various readers. Activity calculation was done using the equation: A1(%)=100*(S−NC)/(AC−NC) where AC, NC and S correspond to active controls (injection of Stimulation buffer=100% stimulation), neutral controls (buffer injection which Iloprost EC10) and screening samples (S). NC corresponds to 0% activity whereas AC is 100% activity (14 mM paromomycin). False positive artefacts were removed in confirmation and validation screening using the same assay format followed by counterscreening using the respective wildtype construct (w/o PTC mutation) cell model. Compounds were tested up to 100 μM compound concentration.

| SMILES | AC50 [µM] | Emax [%] |
| --- | --- | --- |
| CC(C)c1cc2[nH]c3ccccc3c(=O)c2c(=O)n1N1CCCCC1 [Example 2.13, 3-isopropyl-2-(piperidin-1-yl)benzo[b][1,6]naphthyridine-1,10(2H,5H)-dione] | 1.8 | 265 |
| CC(C)c1cc2c(c(=O)c3ccccc3n2C)c(=O)n1N1CCCCC1 [Example 2.14, 3-isopropyl-5-methyl-2-(piperidin-1-yl)benzo[b][1,6]naphthyridine-1,10(2H,5H)-dione] | 1.7 | 271 |
| Cc1ccc2c(c1)c(=O)c1c(=O)n(-c3ccccc3)c(C3CCC3)cc1n2C [Example 1.38, 3-cyclobutyl-5,8-dimethyl-2-phenylbenzo[b][1,6]naphthyridine-1,10(2H,5H)-dione] | 2.3 | 215 |
| O=c1c2cccc3c2n(c2cc(C4CCC4)n(-c4ccccc4)c(=O)c12)CC3 [Example 1.45, 9-cyclobutyl-8-phenyl-1H-indolo[1,7-ab][1,6]naphthyridine-6,7(2H,8H)-dione] | 0.6 | 252 |
| CC(C)c1cc2c(c(=O)c3cccc4c3n2CC4)c(=O)n1-c1ccccc1 [Example 1.11, 9-isopropyl-8-phenyl-1H-indolo[1,7-ab][1,6]naphthyridine-6,7(2H,8H)-dione] | 4 | 276 |
| Cn1c2ccccc2c(=O)c2c(=O)n(-c3ccccc3)c(C3CCC3)cc21 [Example 1.2, 3-Cyclobutyl-5-methyl-2-phenylbenzo[b][1,6]naphthyridine-1,10(2H,5H)-dione] | 1 | 260 |
| Cc1cc2c(=O)c3c(=O)n(-c4ccccc4)c(C(C)C)cc3n(C)c2s1 [Example 1.15, 7-isopropyl-2,9-dimethyl-6-phenylthieno[2,3-b][1,6]naphthyridine-4,5(6H,9H)-dione] | 5.5 | 224 |
| CC(C)c1cc2c(c(=O)c3ccccc3n2C)c(=O)n1C1CCCC1 [Example 2.4, 2-cyclopentyl-3-isopropyl-5-methylbenzo[b][1,6]naphthyridine-1,10(2H,5H)-dione] | 1.8 | 274 |
| CC(C)c1cc2[nH]c3ccc(Cl)cc3c(=O)c2c(=O)n1-c1ccccc1 [Example 1.7, 8-chloro-3-isopropyl-2-phenylbenzo[b][1,6]naphthyridine-1,10(2H,5H)-dione] | 2.4 | 215 |
| O=c1c2sccc2[nH]c2cc(C3CCC3)n(-c3ccccc3)c(=O)c12 [Example 1.35, 6-cyclobutyl-7-phenylthieno[3,2-b][1,6]naphthyridine-8,9(4H,7H)-dione] | 0.4 | 126 |
| Cn1c2ccc(F)cc2c(=O)c2c(=O)n(-c3ccccc3)c(C3CCC3)cc21 [Example 1.39, 3-cyclobutyl-8-fluoro-5-methyl-2-phenylbenzo[b][1,6]naphthyridine-1,10(2H,5H)-dione] | 1.2 | 239 |
| CC(C)c1cc2c(c(=O)c3cc(O)ccc3n2C)c(=O)n1-c1ccccc1 [Example 1.51, 8-hydroxy-3-isopropyl-5-methyl-2-phenylbenzo[b][1,6]naphthyridine-1,10(2H,5H)-dione] | 16.5 | 144 |
| Cc1[nH]c2cc(C3CCC3)n(-c3ccccc3)c(=O)c2c(=O)c1C [Example 1.27, 7-cyclobutyl-2,3-dimethyl-6-phenyl-1,6-naphthyridine-4,5(1H,6H)-dione] | 3 | 206 |
